From ChEMBL document CHEMBL4613206, “Recent applications of hydantoin and thiohydantoin in medicinal chemistry” (Eur J Med Chem, 2019) come the findings set out here.

What is called pIC50 is the IC50 on a negative log10 scale, so that one unit is a factor of ten. As usually defined, the MIC is the lowest concentration that inhibits growth of the organism.

One assay has as its target T1, Tyrosinase (Homo sapiens, UniProt P14679).
T1 sequence (P14679 whole entry): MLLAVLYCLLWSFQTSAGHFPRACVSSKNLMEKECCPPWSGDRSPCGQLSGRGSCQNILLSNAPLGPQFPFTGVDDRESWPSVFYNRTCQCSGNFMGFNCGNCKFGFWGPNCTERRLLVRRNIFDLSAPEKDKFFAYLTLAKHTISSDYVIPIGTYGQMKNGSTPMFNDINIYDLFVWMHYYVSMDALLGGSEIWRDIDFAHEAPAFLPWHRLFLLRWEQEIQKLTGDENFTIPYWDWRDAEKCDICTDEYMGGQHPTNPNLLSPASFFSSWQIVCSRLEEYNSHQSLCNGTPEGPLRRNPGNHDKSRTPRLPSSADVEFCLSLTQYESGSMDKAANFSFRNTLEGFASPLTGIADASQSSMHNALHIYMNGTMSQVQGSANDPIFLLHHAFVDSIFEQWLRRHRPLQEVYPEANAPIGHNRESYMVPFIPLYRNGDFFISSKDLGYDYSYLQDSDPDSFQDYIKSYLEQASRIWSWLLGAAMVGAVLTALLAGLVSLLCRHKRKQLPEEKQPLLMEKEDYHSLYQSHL
Put plainly: Inhibition of tyrosinase (unknown origin).

Assay [1] has as its system Escherichia coli. Nature of the assay: Antibacterial activity against Escherichia coli. The assay is classed as functional.
The test system of assay [2] is Staphylococcus epidermidis. Nature of the assay: Antibacterial activity against methicillin resistant Staphylococcus epidermidis. It counts as functional.
Another assay relates to Klebsiella pneumoniae. Nature of the assay: Antibacterial activity against Klebsiella pneumoniae. It counts as functional.
Assay [3] relates to Enterococcus faecalis. Nature of the assay: Antibacterial activity against Enterococcus faecalis. The assay is classed as functional.
Assay [4] has as its system Staphylococcus aureus. Nature of the assay: Antibacterial activity against methicillin resistant Staphylococcus aureus. The assay is classed as functional.
The subject of assay [5] is Pseudomonas aeruginosa. Nature of the assay: Antibacterial activity against Pseudomonas aeruginosa. The assay is classed as functional.
Assay [6] concerns the target T2, NAD-dependent protein deacetylase sirtuin-2 (Homo sapiens, UniProt Q8IXJ6).
T2 sequence (Q8IXJ6 whole entry): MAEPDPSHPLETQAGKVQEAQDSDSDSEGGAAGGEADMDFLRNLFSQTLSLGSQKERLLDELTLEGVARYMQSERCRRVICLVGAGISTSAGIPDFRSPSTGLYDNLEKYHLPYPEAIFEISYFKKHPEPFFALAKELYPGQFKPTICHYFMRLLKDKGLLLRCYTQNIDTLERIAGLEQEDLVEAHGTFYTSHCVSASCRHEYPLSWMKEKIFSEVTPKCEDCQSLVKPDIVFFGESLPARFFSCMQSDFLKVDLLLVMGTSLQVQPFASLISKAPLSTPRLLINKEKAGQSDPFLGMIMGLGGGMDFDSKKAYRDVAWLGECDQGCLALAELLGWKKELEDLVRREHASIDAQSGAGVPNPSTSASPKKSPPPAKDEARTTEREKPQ
Nature of the assay: Inhibition of recombinant human SIRT2 after 30 mins.

For assay [7], the target named is T3, NAD-dependent protein deacetylase sirtuin-1 (Homo sapiens, UniProt Q96EB6).
T3 sequence (Q96EB6 whole entry): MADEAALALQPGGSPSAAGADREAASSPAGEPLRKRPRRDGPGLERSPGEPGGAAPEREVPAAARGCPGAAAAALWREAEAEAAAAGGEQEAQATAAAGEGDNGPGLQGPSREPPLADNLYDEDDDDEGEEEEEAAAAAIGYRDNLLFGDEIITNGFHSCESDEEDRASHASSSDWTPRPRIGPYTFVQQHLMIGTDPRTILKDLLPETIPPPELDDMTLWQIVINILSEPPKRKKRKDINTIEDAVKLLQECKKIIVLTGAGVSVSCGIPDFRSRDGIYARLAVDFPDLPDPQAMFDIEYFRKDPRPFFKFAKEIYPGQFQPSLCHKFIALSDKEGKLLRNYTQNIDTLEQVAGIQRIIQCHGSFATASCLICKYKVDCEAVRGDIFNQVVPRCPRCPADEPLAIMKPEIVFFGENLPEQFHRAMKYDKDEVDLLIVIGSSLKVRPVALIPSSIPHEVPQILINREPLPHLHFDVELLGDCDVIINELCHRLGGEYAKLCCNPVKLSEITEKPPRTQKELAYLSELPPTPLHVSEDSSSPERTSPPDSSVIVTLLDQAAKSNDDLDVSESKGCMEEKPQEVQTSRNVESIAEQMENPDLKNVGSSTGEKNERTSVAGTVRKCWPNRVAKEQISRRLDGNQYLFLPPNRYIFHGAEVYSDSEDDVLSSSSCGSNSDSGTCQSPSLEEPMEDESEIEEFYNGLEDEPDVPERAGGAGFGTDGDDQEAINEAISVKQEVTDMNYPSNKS
Nature of the assay: Inhibition of recombinant human SIRT1 after 30 mins.

The next assay concerns HEp-2. Nature of the assay: Cytotoxicity against human Hep2 cells assessed as reduction in cell viability by MTT assay. The assay is classed as functional, cell-based. (Tetrazolium assays rely on reduction of a dye to a coloured formazan, in cell work by metabolically active cells.)
The subject of assay [8] is Enterococcus faecalis. Nature of the assay: Antibacterial activity against Enterococcus faecalis ATCC 29212. The assay is classed as functional.
Assay [9] deals with Escherichia coli. Nature of the assay: Antibacterial activity against Escherichia coli ATCC 25922. The assay is classed as functional.
For assay [10], the system named is Pseudomonas aeruginosa. Put plainly: Antibacterial activity against Pseudomonas aeruginosa ATCC 27853. The assay is classed as functional.
The subject of assay [11] is Staphylococcus aureus. Nature of the assay: Antibacterial activity against methicillin resistant Staphylococcus aureus ATCC 43300. It counts as functional.
Assay [12] has as its system Staphylococcus aureus. Nature of the assay: Antibacterial activity against Staphylococcus aureus ATCC 25923. It counts as functional.
For assay [13], the system named is Mus musculus. Put plainly: Anti-inflammatory activity in xylene-induced Kunming mouse assessed as inhibition of ear edema administered as po dose 1 hr before xylene administration and measured after 1 hr xylene administration relative to control. It counts as functional. Also noted: scale not given: the % may be the effect or the level left.
Assay [14] deals with Mus musculus. Nature of the assay: Antitussive activity in ammonia aerosol-stimulated Kunming mouse assessed as inhibition of number of cough administered as po dose 1 hr before ammonia aerosol stimulation (reference value: 42). The assay is classed as functional.
Assay [15] deals with Staphylococcus aureus. Put plainly: Antibacterial activity against Staphylococcus aureus. It counts as functional.

pIC50: −log10 of the molar value. ≈ marks a conversion by molar mass, not a printed value.

On to `COC(=O)CN1C(=O)N(CCCCN2CCN(c3ccccc3OC)CC2)C(c2ccccc2)(c2ccccc2)C1=O`, for which the negative logarithm of the IC50 (pIC50) against Tyrosinase was 5.97.
The same measure, in the same setting: as for `COc1ccccc1N1CCN(CCCCN2C(=O)N(C)C(=O)C2(c2ccccc2)c2ccccc2)CC1`, the figure is 5.13.
With `CCCCCCCCCCCC(=O)N[C@@H](CCCCN)CN1CC(=O)N(c2cccc(Cl)c2)C1=O`, the MIC against Escherichia coli [1] was 1 µg/mL; in [2], 0.5 µg/mL (≈ 0.986 µM); against Klebsiella pneumoniae, 0.78 µg/mL (≈ 1.54 µM); with Enterococcus faecalis [3], 0.5 µg/mL (≈ 0.986 µM); against Staphylococcus aureus [4] it was 0.5 µg/mL (≈ 0.986 µM); with Pseudomonas aeruginosa [5], 1 µg/mL (≈ 1.97 µM).
`O=C1N/C(=C\c2ccc(N3CCCC3)cc2)C(=O)N1Cc1ccc(Cl)cc1`: the pIC50 in [6] and in [7] was 4.41 each time.
For `CC(C)C1NC(=O)N(OCc2cccc(Cl)c2)C1=O` (stereo unspecified), the pIC50 in the assay with HEp-2 was 7.15.
Still for that read-out and setting: as for `CC(C)CC1NC(=O)N(OCc2cccc(Cl)c2)C1=O` (stereo unspecified), the figure is 7.40; as for `CC(C)CC1NC(=O)N(OCc2ccc(Br)cc2)C1=O` (stereo unspecified), 6.82.
As for `O=C1CN(/N=C2\C(=O)N(Cc3ccc(F)cc3)c3ccccc32)C(=O)N1`, the MIC in the assay on Enterococcus faecalis [8] was 12.5 µg/mL (≈ 35.5 µM); against Escherichia coli [9], 6.25 to 12.5 µg/mL (≈ 17.7 to 35.5 µM); in the assay on Pseudomonas aeruginosa [10] it was 12.5 µg/mL (≈ 35.5 µM); in the assay on Staphylococcus aureus [11], 6.25 µg/mL (≈ 17.7 µM); with Staphylococcus aureus [12], 6.25 µg/mL (≈ 17.7 µM).
Turning to `CC(C)Cc1ccc(C(C)C(=O)N2C(=O)CN(C)C2=O)cc1` (stereo unspecified), the Activity in the assay on Mus musculus [13] stood at 54.61%. In the assay on Mus musculus [14], the Number of coughs is on record as 15.5.
On to `CCN(CC)c1ccc(/C=C2\NC(=O)N(Cc3ccc(C)cc3)C2=O)cc1`, for which the pIC50 in assay [6] is 4.16; in [7] it was 4.03.
Consider `O=C1CN(/N=C2\C(=O)N(Cc3ccccc3F)c3ccccc32)C(=O)N1`, for which the MIC against Enterococcus faecalis [8] is 12.5 µg/mL (≈ 35.5 µM); with Escherichia coli [9], 6.25 to 12.5 µg/mL (≈ 17.7 to 35.5 µM); against Pseudomonas aeruginosa [10] it was 12.5 µg/mL (≈ 35.5 µM); with Staphylococcus aureus [11], 6.25 µg/mL (≈ 17.7 µM); with Staphylococcus aureus [12], 6.25 µg/mL (≈ 17.7 µM).
Turning to `CC(C)Cc1ccc(C(C)C(=O)N2C(=O)CNC2=O)cc1` (stereo unspecified), the Activity in the assay on Mus musculus [13] worked out at 24.51%. The Number of coughs in the assay with Mus musculus [14] was 18.3.
In the case of `O=C1NC(CN2CCCC2)C(=O)N1c1c(Cl)cccc1Cl` (stereo unspecified), the minimum inhibitory concentration (MIC) against Escherichia coli [1] amounted to 0.088 µM; against Staphylococcus aureus [15], 0.044 µM (≈ 0.0144 µg/mL).
For `O=C1N/C(=C\c2ccc(O)c(Cl)c2)C(=O)N1Cc1ccc(F)cc1`, the pIC50 is 4.42 in [6] and 4.49 in assay [7].
With `CC(C)Cc1ccc(C(C)C(=O)N2C(=O)N(C)C(C)(C)C2=O)cc1` (stereo unspecified), in the assay on Mus musculus [13], the Activity was 25%. For the same compound, the Number of coughs with Mus musculus [14] is recorded as 18.6.
In the case of `O=C1CN(/N=C2\C(=O)N(Cc3cccc(F)c3)c3ccccc32)C(=O)N1`, the MIC against Enterococcus faecalis [8] was 12.5 µg/mL (≈ 35.5 µM); in the assay with Escherichia coli [9], 6.25 to 12.5 µg/mL (≈ 17.7 to 35.5 µM); in the assay with Pseudomonas aeruginosa [10], 12.5 µg/mL (≈ 35.5 µM); against Staphylococcus aureus [11], 6.25 µg/mL (≈ 17.7 µM); against Staphylococcus aureus [12], 6.25 µg/mL (≈ 17.7 µM).
For the compound `CC(C)Cc1ccc(C(C)C(=O)O)cc1` (stereo unspecified) [IBUPROFEN], in the assay on Mus musculus [13], the Activity worked out at 28.07%.
